Source: ChEMBL document CHEMBL4842392, “Targeting KRAS Mutant Protein Inhibitor for Potential Treatment in Cancer” (ACS Med Chem Lett, 2021)
Several values for one entry are separate records, joined by “and”; a condition that tells them apart may be missing. Identical values can stand only once.

Tests used:
GTPase KRas [1] = biological target: T1, GTPase KRas (Homo sapiens, UniProt P01116, G12C); test: Inhibition of GDP-loaded His-tagged KRAS G12C mutant (2 to 182 residues) (unknown origin) assessed as inhibition of SOS1-catalyzed nucleotide exchange preincubated for 1 hr followed by SOS1 addition measured after 1 hr by TR-FRET assay
GTPase KRas [2] = biological target: T1, GTPase KRas; test: Inhibition of KRAS G12C mutant in human NCI-H358 cells assessed as reduction in ERK phosphorylation incubated for 2 hrs by HTRF assay; assay type: cell-based
NCI-H358 = test: Antiproliferative activity against human NCI-H358 cells assessed as inhibition of cell proliferation incubated for 6 days by CCK8 assay; assay type: functional, cell-based
[3] = Oral bioavailability in Beagle dog at 10 mg/kg measured up to 24 hrs by LC-MS analysis; assay type: ADME, organism-based, Canis lupus familiaris; settings: in vivo

Work on C=CC(=O)N1CCN(c2c(C#N)c(=O)n(-c3c(C(C)C)ncnc3C(C)C)c3nc(-c4c(N)c(Cl)cc(Cl)c4F)c(Cl)cc23)CC1 yielded an IC50 (GTPase KRas [1]) of 4.74 nM, an IC50 (GTPase KRas [2]) of 18.5 nM and an IC50 (NCI-H358; Homo sapiens, NCI-H358, 144 h) of 32 nM.
Compound C=CC(=O)N1CCN(c2c(C#N)c(=O)n(-c3c(C)ccnc3C(C)C)c3nc(-c4c(N)c(Cl)cc(Cl)c4F)c(Cl)cc23)C[C@@H]1CC#N has an IC50 (GTPase KRas [1]) of 6.66 nM and an IC50 (GTPase KRas [2]) of 12.3 nM.
For C=CC(=O)N1CCN(c2c(C#N)c(=O)n(-c3c(C)ccnc3C(C)C)c3nc(-c4c(N)c(Cl)cc(Cl)c4F)c(Cl)cc23)CC1, the IC50 (GTPase KRas [1]) was 1.95 nM and 1.54 nM, the IC50 (GTPase KRas [2]) was 10.4 nM and 11.7 nM and the IC50 (NCI-H358; Homo sapiens, NCI-H358, 144 h) was 27.6 nM. The IC50 (NCI-H358; nci-h358) was 14.5 nM and the F ([3]; 10 mg/kg, 24 h) was 98.5% and 63.1%.
In the case of C=CC(=O)N1CCN(c2c(C#N)c(=O)n(-c3c(C(C)C)ncnc3C(C)C)c3nc(-c4c(N)cccc4F)c(Cl)cc23)CC1, the IC50 (GTPase KRas [2]) is reported as 20.1 nM.
C=CC(=O)N1CCN(c2c(C#N)c(=O)n(-c3c(C)ccnc3C(C)C)c3nc(-c4c(N)c(Cl)cc(Cl)c4F)c(Cl)cc23)CC1CC#N (centres undefined) gave an IC50 (GTPase KRas [1]) of 5.19 nM, an IC50 (GTPase KRas [2]) of 14.9 nM and an IC50 (NCI-H358; Homo sapiens, NCI-H358, 144 h) of 35.6 nM.
Work on C=CC(=O)N1CCN(c2c(C#N)c(=O)n(-c3c(C)ccnc3C(C)C)c3nc(-c4c(N)c(Cl)cc(Cl)c4F)c(Cl)cc23)C[C@H]1C yielded an IC50 (GTPase KRas [1]) of 2.54 nM, an IC50 (GTPase KRas [2]) of 28.8 nM and an IC50 (NCI-H358; Homo sapiens, NCI-H358, 144 h) of 25.4 nM. The bioavailability ([3]; beagle) was 70.3%.
For C=CC(=O)N1[C@H](C)CN(c2c(C#N)c(=O)n(-c3c(C)ccnc3C(C)C)c3nc(-c4c(N)c(Cl)cc(Cl)c4F)c(Cl)cc23)C[C@@H]1C, the IC50 (GTPase KRas [1]) was 2.83 nM, the IC50 (GTPase KRas [2]) was 38.1 nM and the IC50 (NCI-H358; Homo sapiens, NCI-H358, 144 h) was 17.5 nM.
With C=CC(=O)N1CCN(c2c(C#N)c(=O)n(-c3c(C)ccnc3C(C)C)c3nc(-c4ccccc4F)c(Cl)cc23)CC1 the IC50 (GTPase KRas [1]) was 4.4 nM, the IC50 (GTPase KRas [2]) was 29.9 nM and the IC50 (NCI-H358; Homo sapiens, NCI-H358, 144 h) was 52.1 nM.
